The record followed here is PubChem BioAssay (NCI).

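Five compound concentrations were applied to cells in 96-well plates for 48 hours; endpoints were derived by simple linear interpolation of the resulting dose-response curve. TGI denotes the concentration required for complete inhibition of growth.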

Some test systems named below: A549 NSCLC; HT29 colon; OVCAR-8 ovarian; M14 melanoma; SN12C renal; TK-10 renal; NCI/ADR-RES ovarian; SF-268 CNS; SK-MEL-2 melanoma; MOLT-4 leukemia.
Assay in all cases: NCI anticancer screen, dose series, 48 h

As for `CN1C2CC(=O)CC1[C@@H]1OC(c3ccccc3)O[C@H]21` (stereo not given in full), the TGI in the test on A549 NSCLC, in the test on HT29 colon, in the test with OVCAR-8 ovarian, with M14 melanoma, with SN12C renal and in the test with TK-10 renal was above 100 µM each time. In addition, the TGI with NCI/ADR-RES ovarian, in the test on SF-268 CNS, in the test on SK-MEL-2 melanoma and with MOLT-4 leukemia was above 100 µM throughout.

For `N#CC1=CNc2sccc2S1(=O)=O`, the TGI in the test with A549 NSCLC, in the test on HT29 colon, with OVCAR-8 ovarian, with M14 melanoma, in the test with SN12C renal and in the test with TK-10 renal was above 100 µM throughout. The TGI with NCI/ADR-RES ovarian, in the test on SF-268 CNS, with SK-MEL-2 melanoma and in the test on MOLT-4 leukemia was above 100 µM throughout.

For `CSCCC(NC(=O)OC(C)(C)C)C(=O)NCCNc1ccc(NCCNC(=O)C(CCSC)NC(=O)OC(C)(C)C)c2c1C(=O)c1ccccc1C2=O` (stereo not given), the TGI with A549 NSCLC was 7.93 µM; in the test with HT29 colon, 7.51 µM; with OVCAR-8 ovarian, 5.4 µM; in the test with M14 melanoma, 14.1 µM; in the test with SN12C renal, 21 µM; in the test on TK-10 renal it was 15.1 µM. In addition, the TGI in the test with NCI/ADR-RES ovarian is above 100 µM; in the test with SF-268 CNS, 18.7 µM; in the test on SK-MEL-2 melanoma, 35.9 µM; in the test with MOLT-4 leukemia, 11.5 µM.

Consider `CCN(CC)CCCNc1ccc2nnn3c4ccc(O)cc4c(=O)c1c23`, for which the TGI with A549 NSCLC turned out to be 10.3 µM; in the test on HT29 colon, 14.1 µM; with OVCAR-8 ovarian it was 12.9 µM; in the test on M14 melanoma, 23.6 µM; in the test with SN12C renal, 20.7 µM; with TK-10 renal, 17.6 µM. The TGI stood at 22.9 µM in the test with NCI/ADR-RES ovarian, 18.6 µM in the test on SF-268 CNS, 28.8 µM in the test with SK-MEL-2 melanoma and 18.5 µM in the test on MOLT-4 leukemia.

As for `N#Cc1c2c(c(N3CCOCC3)n3c1nc1ccccc13)CCCC2`, the TGI is 61.7 µM in the test on A549 NSCLC; 38.6 µM in the test on HT29 colon; 43.4 µM with OVCAR-8 ovarian; 44.4 µM in the test on M14 melanoma; 45.8 µM with SN12C renal; 49.3 µM with TK-10 renal. For the same compound, the TGI with NCI/ADR-RES ovarian was 43.2 µM; with SF-268 CNS it was above 100 µM; with SK-MEL-2 melanoma, 31.8 µM; in the test with MOLT-4 leukemia it was 41.5 µM.

Take `O=C(Nc1cccc(-c2cn3ccccc3n2)c1)c1ccncc1`: the TGI with A549 NSCLC, in the test on HT29 colon, in the test on OVCAR-8 ovarian, in the test with M14 melanoma, with SN12C renal and with TK-10 renal was above 100 µM throughout. The TGI in the test with NCI/ADR-RES ovarian is 65.1 µM; in the test with SF-268 CNS, above 100 µM; in the test with SK-MEL-2 melanoma, 46.5 µM; in the test on MOLT-4 leukemia, 52.6 µM.

For `O=C1C=CC(=O)c2ncccc21`, the TGI with A549 NSCLC stood at 28.8 µM; in the test on HT29 colon it was 16.7 µM; in the test with OVCAR-8 ovarian it was 26.5 µM; in the test on M14 melanoma, 13.1 µM; in the test with SN12C renal, 16 µM; in the test with TK-10 renal, 17.4 µM. Besides, the TGI in the test with NCI/ADR-RES ovarian was 36.1 µM; in the test with SF-268 CNS, 27.1 µM; in the test with SK-MEL-2 melanoma, 28.2 µM; with MOLT-4 leukemia, above 24.1 µM.

Consider `O=C(NCCO)c1ccc(Cl)cc1`, for which the TGI with A549 NSCLC, with HT29 colon, in the test with OVCAR-8 ovarian, in the test on M14 melanoma, with SN12C renal and in the test on TK-10 renal was above 100 µM in each case. Moreover, the TGI with NCI/ADR-RES ovarian, in the test with SF-268 CNS, in the test with SK-MEL-2 melanoma and in the test with MOLT-4 leukemia was above 100 µM each time.

As to `CC(C)(C)OC(=O)N1C(OP(=O)(Oc2ccccc2)Oc2ccccc2)=COc2cccnc21`, the TGI with A549 NSCLC, in the test with HT29 colon, in the test with OVCAR-8 ovarian, in the test with M14 melanoma, with SN12C renal and in the test with TK-10 renal was above 100 µM throughout. Besides, the TGI in the test with NCI/ADR-RES ovarian is above 100 µM; with SF-268 CNS, above 100 µM; with SK-MEL-2 melanoma it was 55.7 µM; in the test on MOLT-4 leukemia, 43.3 µM.

For `O=C1[C@@H]2Cc3c([nH]c4ccccc34)C(C3CCCCC3)N2C(=O)[C@@H]2CCCN12` (stereo not given in full), the TGI in the test on A549 NSCLC is above 100 µM; in the test with HT29 colon, 73.4 µM; with OVCAR-8 ovarian, above 100 µM; in the test with M14 melanoma it was above 100 µM; in the test on SN12C renal it was 63.4 µM; in the test on TK-10 renal, above 100 µM. The TGI in the test on NCI/ADR-RES ovarian was 78.7 µM; in the test with SF-268 CNS, above 100 µM; in the test with SK-MEL-2 melanoma, 39.7 µM; in the test on MOLT-4 leukemia, 57 µM.

In the case of `CCCCCCCCCCCCCCCCNc1nc(=O)n(C2CC(O)C(CO)O2)cc1F` (stereo not given), the TGI with A549 NSCLC is 18.7 µM; in the test with HT29 colon, 21.5 µM; with OVCAR-8 ovarian, 23.9 µM; in the test with M14 melanoma, 27.2 µM; with SN12C renal, 26.9 µM; in the test with TK-10 renal, 27.5 µM. The TGI in the test on NCI/ADR-RES ovarian was determined as 27.1 µM; with SF-268 CNS it was 22.3 µM; in the test on SK-MEL-2 melanoma it was 40.3 µM; with MOLT-4 leukemia it was 37.7 µM.
